Test results as given in the NIST ThermoML archive (doi:10.1016/j.jct.2017.09.005).
Values joined by “and” are separate entries in the source; they are usually repeats but may differ in a detail not shown here. Identical values can stand only once.

Key:
[1] = for vapor or sublimation pressure: Twin ebulliometer; for molar entropy: 101.33 kPa, Small sample (50 mg) DSC; for Critical density: DSC; for Critical temperature: DTA
[2] = molar heat capacity at saturation pressure; conditions: Liquid, Small sample (50 mg) DSC

Cc1c[nH]c(C)c1 [2,4-dimethyl-1H-pyrrole]
[1]
Conditions	mass density [kg/m3]
323.14 K, Liquid, Vibrating tube method	895.5
348.13 K, Liquid, Vibrating tube method	874.8
373.12 K, Liquid, Vibrating tube method	853
398.12 K, Liquid, Vibrating tube method	830.6
423.11 K, Liquid, Vibrating tube method	807.2
448.11 K, Liquid, Vibrating tube method	781.3
645.3 K, Gas, From heat capacities measured by DSC	159
648.6 K, Gas, From heat capacities measured by DSC	220
649 K, Gas, From heat capacities measured by DSC	248
650 K, Liquid, From heat capacities measured by DSC	413
656.5 K, Liquid, From heat capacities measured by DSC	292

[1], Liquid
Conditions	molar entropy [J/K/mol]	vapor or sublimation pressure
338.25 K	–	1.995 kPa
343.72 K	–	2.666 kPa
351.75 K	–	4 kPa
357.76 K	–	5.337 kPa
366.62 K	–	7.992 kPa
373.28 K	–	10.66 kPa
378.68 K	–	13.34 kPa
384.24 K	–	16.66 kPa
388.88 K	–	19.93 kPa
394.96 K	–	25.02 kPa and 25.01 kPa
401.09 K	–	31.17 kPa
407.25 K	–	38.57 kPa
413.43 K	–	47.37 kPa
419.66 K	–	57.81 kPa
425.98 K	–	70.24 kPa
432.21 K	–	84.53 kPa
438.54 K	–	101.33 kPa
440 K	306.38	–
444.91 K	–	120.8 kPa
451.31 K	–	143.27 kPa
457.75 K	–	169.05 kPa
460 K	317.25	–
464.23 K	–	198.53 kPa
470.74 K	–	232.06 kPa
477.28 K	–	270.07 kPa
480 K	327.92	–
500 K	338.4	–
520 K	348.69	–
540 K	358.8	–
560 K	368.76	–
580 K	378.61	–
600 K	388.45	–

Conditions	Critical density [kg/m3]	Critical temperature [K]	molar heat capacity [J/K/mol]
[1], Liquid	285.8	653	–
[2], 440 K	–	–	241.31
[2], 460 K	–	–	247.84
[2], 480 K	–	–	253.77
[2], 500 K	–	–	259.54
[2], 520 K	–	–	265.15
[2], 540 K	–	–	270.8
[2], 560 K	–	–	276.99
[2], 580 K	–	–	284.79
[2], 600 K	–	–	297.37

Cc1ccc(C)[nH]1 [2,5-dimethyl-1H-pyrrole]
[1]
Conditions	mass density [kg/m3]
323.14 K, Liquid, Vibrating tube method	910.8
348.13 K, Liquid, Vibrating tube method	890.3
373.12 K, Liquid, Vibrating tube method	867.7
398.12 K, Liquid, Vibrating tube method	843.9
423.11 K, Liquid, Vibrating tube method	819.6
448.11 K, Liquid, Vibrating tube method	793.5
473.11 K, Liquid, Vibrating tube method	766.5
498.11 K, Liquid, Vibrating tube method	738.1
508.11 K, Liquid, Vibrating tube method	725.6
650 K, Gas, From heat capacities measured by DSC	144
660.8 K, Gas, From heat capacities measured by DSC	257
661.5 K, Liquid, From heat capacities measured by DSC	334
661.7 K, Liquid, From heat capacities measured by DSC	299

[1], Liquid
Conditions	molar entropy [J/K/mol]	vapor or sublimation pressure [kPa]
341.46 K	–	1.997
354.8 K	–	3.994
360.76 K	–	5.333
369.58 K	–	8.007
376.17 K	–	10.67
380 K	263.56	–
381.49 K	–	13.34
386.98 K	–	16.66
391.56 K	–	19.93
397.58 K	–	25.02
400 K	275.4	–
403.63 K	–	31.18
409.71 K	–	38.56
415.81 K	–	47.35
420 K	286.97	–
421.96 K	–	57.8
428.14 K	–	70.1
434.36 K	–	84.53
440 K	298.28	–
440.62 K	–	101.35
446.89 K	–	120.78
453.2 K	–	143.21
459.55 K	–	169.03
460 K	309.34	–
465.94 K	–	198.49
472.36 K	–	232.03
478.82 K	–	270.08
480 K	320.16	–
500 K	330.75	–
520 K	341.13	–
540 K	351.34	–
560 K	361.4	–
580 K	371.4	–
600 K	381.43	–

Conditions	Critical density [kg/m3]	Critical temperature [K]	molar heat capacity [J/K/mol]
[1], Liquid	288.6	662	–
[2], 380 K	–	–	227.58
[2], 400 K	–	–	234.06
[2], 420 K	–	–	240.2
[2], 440 K	–	–	246
[2], 460 K	–	–	251.53
[2], 480 K	–	–	256.87
[2], 500 K	–	–	262.15
[2], 520 K	–	–	267.56
[2], 540 K	–	–	273.45
[2], 560 K	–	–	280.39
[2], 580 K	–	–	289.72
[2], 600 K	–	–	303.59

Cn1cccc1 [N-methylpyrrole]
[1]
Conditions	mass density [kg/m3]
323.14 K, Liquid, Vibrating tube method	879.5
348.13 K, Liquid, Vibrating tube method	854.2
373.12 K, Liquid, Vibrating tube method	828.2
398.12 K, Liquid, Vibrating tube method	800.7
423.11 K, Liquid, Vibrating tube method	772.1
448.11 K, Liquid, Vibrating tube method	741.1
582.9 K, Gas, From heat capacities measured by DSC	137
592 K, Gas, From heat capacities measured by DSC	201
592.7 K, Gas, From heat capacities measured by DSC	220
593.2 K, Liquid, From heat capacities measured by DSC	382
596.1 K, Gas, From heat capacities measured by DSC	257
596.2 K, Liquid, From heat capacities measured by DSC	328
596.5 K, Liquid, From heat capacities measured by DSC	337

[1], Liquid
Conditions	molar entropy [J/K/mol]
360 K	230.1
380 K	239.15
400 K	248.02
420 K	256.74
440 K	265.36
460 K	273.88
480 K	282.3
500 K	290.66
520 K	298.96

Conditions	Critical density [kg/m3]	Critical temperature [K]	molar heat capacity [J/K/mol]
[1], Liquid	299.8	597	–
[2], 360 K	–	–	164.66
[2], 380 K	–	–	170.08
[2], 400 K	–	–	175.89
[2], 420 K	–	–	182.02
[2], 440 K	–	–	188.36
[2], 460 K	–	–	194.81
[2], 480 K	–	–	201.34
[2], 500 K	–	–	208.14
[2], 520 K	–	–	215.72

c1cc[nH]c1 [pyrrole]
[1]
Conditions	mass density [kg/m3]
323.14 K, Liquid, Vibrating tube method	943.9
348.13 K, Liquid, Vibrating tube method	921.2
373.12 K, Liquid, Vibrating tube method	897.8
398.12 K, Liquid, Vibrating tube method	873.5
423.11 K, Liquid, Vibrating tube method	847.6
448.11 K, Liquid, Vibrating tube method	820.2
468.11 K, Liquid, Vibrating tube method	796.1
604.6 K, Gas, From heat capacities measured by DSC	104
623.7 K, Gas, From heat capacities measured by DSC	148
632.4 K, Gas, From heat capacities measured by DSC	220
633.5 K, Liquid, From heat capacities measured by DSC	395
635.4 K, Liquid, From heat capacities measured by DSC	329
637.8 K, Gas, From heat capacities measured by DSC	271

[1], Liquid
Conditions	molar entropy [J/K/mol]
360 K	181.95
380 K	189.82
400 K	197.54
420 K	205.12
440 K	212.58
460 K	219.91
480 K	227.13
500 K	234.23
520 K	241.22
540 K	248.11

Conditions	Critical density [kg/m3]	Critical temperature [K]	molar heat capacity [J/K/mol]
[1], Liquid	314.2	638.5	–
[2], 360 K	–	–	143.21
[2], 380 K	–	–	148.11
[2], 400 K	–	–	152.99
[2], 420 K	–	–	157.84
[2], 440 K	–	–	162.62
[2], 460 K	–	–	167.28
[2], 480 K	–	–	171.79
[2], 500 K	–	–	176.14
[2], 520 K	–	–	180.48
[2], 540 K	–	–	185.06
